In brackets after ≈: the same amount, converted by molar mass.
Columns and labels:
Format in all cases: functional
[1] = tested on: Escherichia coli; experiment: Tested for in vitro antibacterial activity against Escherichia coli TEM-1
[2] = tested on: Proteus vulgaris; experiment: Tested for in vitro antibacterial activity against Proteus vulgaris ATCC 6380
[3] = tested on: Staphylococcus aureus; experiment: Tested for in vitro antibacterial activity against Staphylococcus aureus 753
[4] = tested on: Escherichia coli; experiment: Tested for in vitro antibacterial activity against Escherichia coli 257
[5] = tested on: Pseudomonas aeruginosa; experiment: Tested for in vitro antibacterial activity against Pseudomonas aeruginosa 18SH
[6] = tested on: Citrobacter freundii; experiment: Tested for in vitro antibacterial activity against Citrobacter freundii BS-16
[7] = tested on: Klebsiella pneumoniae; experiment: Tested for in vitro antibacterial activity against Klebsiella pneumoniae A
[8] = tested on: Streptococcus pneumoniae; experiment: Tested for in vitro antibacterial activity against Streptococcus pneumoniae 6301
[9] = tested on: Streptococcus pyogenes; experiment: Tested for in vitro antibacterial activity against Streptococcus pyogenes 4
[10] = tested on: Staphylococcus aureus; experiment: Tested for in vitro antibacterial activity against Staphylococcus aureus Smith
[11] = tested on: Staphylococcus aureus; experiment: Tested for in vitro antibacterial activity against Staphylococcus aureus 67
[12] = tested on: Enterobacter cloacae; experiment: Tested for in vitro antibacterial activity against Enterobacter cloacae P99
[13] = tested on: Pseudomonas aeruginosa; experiment: Tested for in vitro antibacterial activity against Pseudomonas aeruginosa 5712
[14] = tested on: Pseudomonas aeruginosa; experiment: Tested for in vitro antibacterial activity against Pseudomonas aeruginosa 5712; inactive
[15] = tested on: Proteus vulgaris; experiment: Tested for in vitro antibacterial activity against Proteus vulgaris ATCC 6380; inactive
[16] = tested on: Staphylococcus aureus; experiment: Tested for in vitro antibacterial activity against Staphylococcus aureus Smith; inactive
[17] = tested on: Citrobacter freundii; experiment: Tested for in vitro antibacterial activity against Citrobacter freundii BS-16; inactive
[18] = tested on: Staphylococcus aureus; experiment: Tested for in vitro antibacterial activity against Staphylococcus aureus 753; inactive
[19] = tested on: Streptococcus pyogenes; experiment: Tested for in vitro antibacterial activity against Streptococcus pyogenes 4; inactive
[20] = tested on: Pseudomonas aeruginosa; experiment: Tested for in vitro antibacterial activity against Pseudomonas aeruginosa 18SH; inactive
[21] = tested on: Escherichia coli; experiment: Tested for in vitro antibacterial activity against Escherichia coli TEM-1; inactive
[22] = tested on: Klebsiella pneumoniae; experiment: Tested for in vitro antibacterial activity against Klebsiella pneumoniae A; inactive
[23] = tested on: Streptococcus pneumoniae; experiment: Tested for in vitro antibacterial activity against Streptococcus pneumoniae 6301; inactive
[24] = tested on: Escherichia coli; experiment: Tested for in vitro antibacterial activity against Escherichia coli 257; inactive
[25] = tested on: Enterobacter cloacae; experiment: Tested for in vitro antibacterial activity against Enterobacter cloacae P99; inactive
[26] = tested on: Staphylococcus aureus; experiment: Tested for in vitro antibacterial activity against Staphylococcus aureus 67; inactive

Compound | MIC [1] [µg/mL] | MIC [2] [µg/mL] | MIC [3] [µg/mL] | MIC [4] [µg/mL] | MIC [5] [µg/mL] | MIC [6] [µg/mL] | MIC [7] [µg/mL] | MIC [8] [µg/mL] | MIC [9] [µg/mL] | MIC [10] [µg/mL] | MIC [11] [µg/mL] | MIC [12] [µg/mL] | MIC [13] [µg/mL] | also measured
O=C(O)c1cn(C2CC2)c2c(F)c(N3CCNCC3)c(F)cc2c1=O | 0.0156 (≈ 0.0447 µM) | 0.0078 (≈ 0.0223 µM) | 0.25 (≈ 0.716 µM) | 0.0078 (≈ 0.0223 µM) | 0.25 (≈ 0.716 µM) | 0.0313 (≈ 0.0896 µM) | 0.25 (≈ 0.716 µM) | 1 (≈ 2.86 µM) | 0.5 (≈ 1.43 µM) | 0.125 (≈ 0.358 µM) | 0.5 (≈ 1.43 µM) | 0.0078 (≈ 0.0223 µM) | 1 (≈ 2.86 µM) | –
CO/N=C(/C(=O)NC1C(=O)N2C(C(=O)[O-])=C(CSc3nnnn3CC(=O)N3CCN(c4cc5c(cc4F)c(=O)c(C(=O)O)cn5C4CC4)CC3)CS[C@H]12)c1csc(N)n1.[Na+] (stereo partly drawn) | 2 | 4 | 128 | 4 | 128 | 32 | 2 | ≤ 0.0156 | ≤ 0.0156 | 4 | 64 | 16 | > 128 | –
O=C(O)c1cn(C2CC2)c2cc(N3CCN(C(=O)Cn4nnnc4S)CC3)c(F)cc2c1=O | 2 (≈ 4.22 µM) | 4 (≈ 8.45 µM) | 64 (≈ 135 µM) | 2 (≈ 4.22 µM) | 32 (≈ 67.6 µM) | 4 (≈ 8.45 µM) | 32 (≈ 67.6 µM) | 64 (≈ 135 µM) | 64 (≈ 135 µM) | 32 (≈ 67.6 µM) | 64 (≈ 135 µM) | 2 (≈ 4.22 µM) | 128 (≈ 270 µM) | –
CO/N=C(/C(=O)NC1C(=O)N2C(C(=O)[O-])=C(CO)CS[C@H]12)c1csc(N)n1.[Na+] (stereo partly drawn) | 0.25 | 0.0625 | > 128 | 0.25 | > 128 | > 128 | 0.0625 | 0.0625 | ≤ 0.0157 | 16 | > 128 | > 128 | > 128 | –
CO/N=C(/C(=O)NC1C(=O)N2C(C(=O)[O-])=C(CSc3nnnn3CC(=O)O)CS[C@H]12)c1csc(N)n1.[Na+] (stereo partly drawn) | 0.125 | ≤ 0.0156 | > 128 | 0.125 | > 128 | 128 | 0.0625 | 0.0313 | 0.0313 | 8 | > 128 | > 128 | 16 | –
O=C([O-])Cn1nnnc1[S-].[Na+].[Na+] | – | – | – | – | – | – | – | – | – | – | – | – | – | MIC [14]: > 128 µg/mL; MIC [15]: > 128 µg/mL; MIC [16]: > 128 µg/mL; MIC [17]: > 128 µg/mL; MIC [18]: > 128 µg/mL; MIC [19]: > 128 µg/mL; MIC [20]: > 128 µg/mL; MIC [21]: > 128 µg/mL; MIC [22]: > 128 µg/mL; MIC [23]: > 128 µg/mL; MIC [24]: > 128 µg/mL; MIC [25]: > 128 µg/mL; MIC [26]: > 128 µg/mL

Source: ChEMBL document CHEMBL1127180, “Synthesis and mechanistic studies of a tetrazole-tethered cephalosporin-quinolone hybrid” (1993)
